Target: Mitogen-activated protein kinase kinase kinase 14 (Homo sapiens, UniProt Q99558)
Assay: Inhibition of Auto-Phosphorylation of Recombinant Human NF-kappaB-Inducing Kinase (NIK1/AP3K14) Activity: NIK/MAP3K14 auto-phosphorylation activity was measured using the AlphaScreen® (αscreen) format (Perkin Elmer). All compounds tested were dissolved in dimethyl sulfoxide (DMSO) and further dilutions were made in assay buffer. Final DMSO concentration was […] in assays. Assay buffer was 50 mM Tris pH 7.5 containing 1 mM EGTA (ethylene glycol tetraacetic acid), 1 mM DTT (dithiothreitol), 0.1 mM Na3VO4, 5 mM MgCl2, 0.01% Tween® 20. Assays were carried out in 384 well Alphaplates (Perkin Elmer). Incubations consisted of compound, 25 microM Adenosine-5′-triphosphate (ATP), and 0.2 nM NIK/MAP3K14. Incubations were initiated by addition of GST-tagged NIK/MAP3K14 enzyme, carried out for 1 h at 25° C. and terminated by addition of stop buffer containing anti-phospho-[…] Ser176/180 antibody. Protein A Acceptor and Glutathione-Donor beads were added before reading using an EnVision® Multilabel Plate Reader (Perkin Elmer). Signal obtained in the wells containing blank samples was subtracted from all other wells and IC50's were determined by fitting a sigmoidal curve to % inhibition of control versus Log10 compound concentration.

Chain of Mitogen-activated protein kinase kinase kinase 14 (Q99558 whole entry): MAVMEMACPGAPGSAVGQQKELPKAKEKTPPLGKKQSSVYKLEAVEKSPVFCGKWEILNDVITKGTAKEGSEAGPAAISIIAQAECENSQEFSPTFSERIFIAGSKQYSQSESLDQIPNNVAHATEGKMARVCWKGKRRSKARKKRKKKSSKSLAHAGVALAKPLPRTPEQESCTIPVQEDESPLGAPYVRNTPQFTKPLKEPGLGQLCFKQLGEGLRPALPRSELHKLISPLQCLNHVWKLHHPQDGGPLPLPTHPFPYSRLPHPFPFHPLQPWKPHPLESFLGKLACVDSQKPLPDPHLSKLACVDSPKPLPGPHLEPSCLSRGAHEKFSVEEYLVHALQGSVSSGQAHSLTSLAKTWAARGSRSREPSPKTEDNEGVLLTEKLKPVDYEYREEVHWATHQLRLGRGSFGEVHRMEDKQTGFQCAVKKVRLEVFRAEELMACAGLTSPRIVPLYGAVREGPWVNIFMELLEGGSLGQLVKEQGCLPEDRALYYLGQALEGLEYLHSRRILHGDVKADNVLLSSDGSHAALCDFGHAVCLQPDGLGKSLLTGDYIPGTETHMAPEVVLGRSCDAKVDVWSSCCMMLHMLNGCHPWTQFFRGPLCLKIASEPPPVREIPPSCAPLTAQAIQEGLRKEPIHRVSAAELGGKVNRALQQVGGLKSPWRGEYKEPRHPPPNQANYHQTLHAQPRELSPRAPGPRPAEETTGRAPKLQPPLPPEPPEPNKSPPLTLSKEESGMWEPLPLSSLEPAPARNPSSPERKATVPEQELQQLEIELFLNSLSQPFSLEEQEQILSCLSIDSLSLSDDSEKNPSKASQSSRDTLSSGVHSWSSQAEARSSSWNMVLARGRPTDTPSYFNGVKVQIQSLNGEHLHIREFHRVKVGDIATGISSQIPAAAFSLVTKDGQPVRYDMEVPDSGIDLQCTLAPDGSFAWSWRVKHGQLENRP

Row | IC50 | SMILES
1 | 4.2 nM | CN1CCc2ncc(Nc3ncc(F)c(-c4cc(C#N)c5c(c4)[C@@](C)(CO)CN5)n3)cc2C1
2 | 148 nM | CC1(C)CNc2c(C#N)cc(-c3ccnc(Nc4cc(Cl)cc5[nH]ccc45)n3)cc21
3 | 1.8 nM | COc1nc2c(cc1Nc1nccc(-c3cc(C#N)c4c(c3)[C@@](C)(CO)CN4)n1)CCN(C)C2

Source: ChEMBL document CHEMBL5728847, “Cyanoindoline derivatives as NIK inhibitors” (2021)
